In US8895587B2, “Insecticidal compounds based on arylthioacetamide derivatives” (Syngenta Participations AG, priority 2011, dated 2014):

Legend:
Assay type in all cases: in vivo
Diabrotica balteata [1] = assay: Diabrotica balteata (corn root worm) larval test on artificial diet; settings: 120 h, read-out: Control/% Diabrotica balteata Corn rootworm; for pest or weed control at 3 ppm: application rate 3 ppm; for pest or weed control at 12 ppm: application rate 12 ppm; for pest or weed control at 50 ppm: application rate 50 ppm
Myzus persicae = Myzus persicae (green peach aphid), systemic test; settings: 144 h, application rate 12.5 ppm, roots of pea seedlings in test solution, 6 days
Excerpt: Myzus persicae (Green peach aphid), systemic test: Roots of pea seedlings, infested with an aphid population of mixed ages, are placed directly in the test solutions at an application rate of 12.5 ppm. 6 days after introduction, samples are checked for mortality and special effects on the plant. The following compounds gave at least 80% control of Myzus persicae: […]

Spodoptera littoralis = Spodoptera littoralis (Egyptian cotton leafworm) leaf disc test; settings: foliar, 72 h, application rate 200 ppm, cotton leaf discs, L1 larvae, mortality, feeding behavior, growth regulation 3 DAT
Excerpt: Spodoptera littoralis (Egyptian Cotton Leafworm): Cotton leaf discs were placed on agar in a 24-well microtiter plate and sprayed with test solutions at an application rate of 200 ppm. After drying, the leaf discs were infested with 5 L1 larvae. The samples were checked for mortality, feeding behavior, and growth regulation 3 days after treatment (DAT).

Diabrotica balteata [2] = assay: Diabrotica balteata (corn root worm) larval test on artificial diet; settings: 120 h, application rate 200 ppm (concentration in well 18 ppm), L2 larvae on artificial diet, 5 days
Experimental: (§1) Diabrotica balteata (Corn Root Worm): A 24-well microtiter plate (MTP) with artificial diet was treated with test solutions at an application rate of 200 ppm (concentration in well 18 ppm) by pipetting. After drying, the MTP's were infested with L2 larvae (6-10 per well). After an incubation period of 5 days, samples were checked for larval mortality and growth regulation.

Plutella xylostella [3] = assay: Plutella xylostella (diamond back moth) larval test on artificial diet; settings: 144 h, application rate 200 ppm (concentration in well 18 ppm), L2 larvae on artificial diet, 6 days
Experimental: as §1, with “24-well” for “Diabrotica balteata (Corn Root Worm): A 24-well”, “(7-12” for “(6-10”, “6” for “5”

Heliothis virescens [4] = assay: Heliothis virescens (tobacco budworm) egg/larval test on artificial diet; settings: 96 h; for pest or weed control at 0.8 ppm: application rate 0.8 ppm; for pest or weed control at 3 ppm: application rate 3 ppm
Plutella xylostella [5] = assay: Plutella xylostella (diamond back moth) larval test on artificial diet; settings: 144 h; for pest or weed control at 0.8 ppm: application rate 0.8 ppm; for pest or weed control at 3 ppm: application rate 3 ppm
Tetranychus urticae = Tetranychus urticae (two-spotted spider mite) leaf disc test; settings: foliar, 192 h, application rate 200 ppm, bean leaf discs, 8 days
Excerpt: Bean leaf discs on agar in 24-well microtiter plates were sprayed with test solutions at an application rate of 200 ppm. After drying, the leaf discs are infested with mite populations of mixed ages. 8 days later, discs are checked for egg mortality, larval mortality, and adult mortality.

Heliothis virescens [6] = assay: Heliothis virescens (tobacco budworm) egg/larval test on artificial diet; settings: 96 h, application rate 200 ppm (concentration in well 18 ppm), eggs on artificial diet, 4 days
Experimental: Eggs (0-24 h old) were placed in 24-well microtiter plate on artificial diet and treated with test solutions at an application rate of 200 ppm (concentration in well 18 ppm) by pipetting. After an incubation period of 4 days, samples were checked for egg mortality, larval mortality, and growth regulation.

Thrips tabaci = Thrips tabaci (onion thrips) leaf disc test; settings: foliar, 168 h, application rate 200 ppm, sunflower leaf discs, 7 days
Experimental: Sunflower leaf discs were placed on agar in a 24-well microtiter plate and sprayed with test solutions at an application rate of 200 ppm. After drying, the leaf discs were infested with a thrips population of mixed ages. After an incubation period of 7 days, samples were checked for mortality.

Compound	pest or weed control at 3 ppm (Diabrotica balteata [1])	pest or weed control at 12 ppm (Diabrotica balteata [1])	pest or weed control at 50 ppm (Diabrotica balteata [1])	pest or weed control at 12.5 ppm (Myzus persicae)	pest or weed control at 200 ppm (Spodoptera littoralis)	pest or weed control at 200 ppm (Diabrotica balteata [2])	pest or weed control at 200 ppm (Plutella xylostella [3])	pest or weed control at 0.8 ppm (Heliothis virescens [4])	pest or weed control at 3 ppm (Heliothis virescens [4])	pest or weed control at 0.8 ppm (Plutella xylostella [5])	pest or weed control at 3 ppm (Plutella xylostella [5])	pest or weed control at 200 ppm (Tetranychus urticae)	pest or weed control at 200 ppm (Heliothis virescens [6])	pest or weed control at 200 ppm (Thrips tabaci)
Cc1cc(C2=NOC(c3cc(Cl)cc(Cl)c3)(C(F)(F)F)C2)ccc1[S+]([O-])CC(=O)NCC(F)(F)F (stereo not shown) [Compound A50, 2-{4-[5-(3,5-Dichloro-phenyl)-5-trifluoromethyl-4,5-dihydro-isoxazol-3-yl]-2-methyl-benzenesulfinyl}-N-(2,2,2-trifluoro-ethyl)-acetamide]	75%	100%	100%	≥ 80%	≥ 80%	≥ 80%	≥ 80%	80%	80%	80%	100%	≥ 80%	≥ 80%	≥ 80%
Cc1cc(C2=NOC(c3cc(Cl)cc(Cl)c3)(C(F)(F)F)C2)ccc1S(=O)(=O)CC(=O)NCC(F)(F)F (stereo not shown) [Compound A51, 2-{4-[5-(3,5-Dichloro-phenyl)-5-trifluoromethyl-4,5-dihydro-isoxazol-3-yl]-2-methyl-benzenesulfonyl}-N-(2,2,2-trifluoro-ethyl)-acetamide]		100%	100%	≥ 80%	≥ 80%	≥ 80%	≥ 80%	80%	80%	80%	100%	≥ 80%	≥ 80%	≥ 80%
Cc1cc(C2=NOC(c3cc(Cl)cc(Cl)c3)(C(F)(F)F)C2)ccc1SCC(=O)NCC(F)(F)F (stereo not shown) [Compound A49, 2-{2-Methyl-4-[5-(3,5-Dichloro-phenyl)-5-trifluoromethyl-4,5-dihydro-isoxazol-3-yl]-phenylsulfanyl}-N-(2,2,2-trifluoro-ethyl)-acetamide]	100%	100%		≥ 80%	≥ 80%	≥ 80%	≥ 80%	80%	100%	80%	100%	≥ 80%	≥ 80%	≥ 80%
